# Measured values reported in patent publication US20210300926A1, “NEW BETA-LACTAMASE INHIBITORS TARGETING GRAM NEGATIVE BACTERIA” (priority 2017, published 2021).
# Where two headings read alike, the source gives them in different places.
# Assays:
# AmpCEclo = target: T1, AmpCEclo (Enterobacter cloacae, UniProt P05364); type: biochemical; conditions: for Carbamoylation efficacy of β-lactamases by diazabicyclooctanes / De-carbamoylation rate constant k−2 for β-lactamase-diazabicyclooctane adducts: AmpCEclo, 20° C., nitrocefin 100 μM, MES pH 6.4
# T1 construct: fragments of the β-lactamase genes encoding soluble enzymes, i.e. devoid of the signal peptides; 6xHis tag followed by TEV cleavage site ([…]) (N); made in house; host or cells: E. coli BL21 (DE3)
# T1 sequence (P05364 21-381): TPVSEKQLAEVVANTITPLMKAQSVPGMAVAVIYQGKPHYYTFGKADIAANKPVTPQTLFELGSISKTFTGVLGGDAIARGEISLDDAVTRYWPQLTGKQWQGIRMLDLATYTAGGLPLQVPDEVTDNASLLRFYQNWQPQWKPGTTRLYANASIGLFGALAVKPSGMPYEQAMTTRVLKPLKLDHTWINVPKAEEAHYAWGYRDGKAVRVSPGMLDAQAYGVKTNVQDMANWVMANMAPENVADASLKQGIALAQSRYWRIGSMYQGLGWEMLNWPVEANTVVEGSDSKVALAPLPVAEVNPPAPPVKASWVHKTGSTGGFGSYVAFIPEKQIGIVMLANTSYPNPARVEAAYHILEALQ
# Protocol: (§1) Production and purification of β-lactamases. E. coli BL21 (DE3) harboring recombinant plasmids were grown in brain heart infusion (BHI) broth supplemented with kanamycin (50 μg/ml) at 37° C. under vigorous shaking until the optical density at 600 nm (OD600) reached 0.8. Isopropyl β-D-1-thiogalactopyranoside IPTG (0.5 mM) was added and incubation was continued at 16° C. for 18 h. Bacteria were harvested by centrifugation, re-suspended in 25 mM Tris-HCl (pH 7.5) containing 300 mM NaCl (buffer A) and lysed by sonication. The enzymes were purified from clarified lysates by affinity chromatography (NiNTA agarose, Sigma-Aldrich) and size exclusion chromatography in buffer A (Superdex 200 HL26/60, Amersham Pharmacia Biotech). Protein concentration was determined by the Biorad protein assay using bovine serum albumin as a standard.
# (§2) Determination of kinetic parameters. […] Briefly, the initial velocity (vi) was determined by spectrophotometry for various concentrations of β-lactams [S] and a fixed concentration of β-lactamase [E]. The values of vi were plotted as a function of [S]. The kinetic constants Km and kcat were determined by fitting the equation […] to the resulting curve. The molecular extinction coefficient was 14,600 M^−1 cm^−1 at 486 nm for nitrocefin. […] Kinetics constants were deduced from a minimum of 6 progress curves obtained in a minimum of two independent experiments.
# [1] = system: E. coli Top10 producing KPC-2; type: cell-based, Escherichia coli; conditions: summary of Table 1
# KPC-2 = target: T2, KPC-2 (Klebsiella pneumoniae, UniProt Q9F663); test: Kinetic parameters of β-lactamase carbamoylation/de-carbamoylation (nitrocefin), KPC-2; type: biochemical; conditions: for Carbamoylation efficacy of β-lactamases by diazabicyclooctanes / De-carbamoylation rate constant k−2 for β-lactamase-diazabicyclooctane adducts: KPC-2, 20° C., nitrocefin 100 μM, MES pH 6.4; for activity against KPC-2 (in words): summary of Tables 1 and 2
# T2 construct: fragments of the β-lactamase genes encoding soluble enzymes, i.e. devoid of the signal peptides; 6xHis tag followed by TEV cleavage site ([…]) (N); made in house; host or cells: E. coli BL21 (DE3)
# T2 sequence (Q9F663 25-293 limits assumed): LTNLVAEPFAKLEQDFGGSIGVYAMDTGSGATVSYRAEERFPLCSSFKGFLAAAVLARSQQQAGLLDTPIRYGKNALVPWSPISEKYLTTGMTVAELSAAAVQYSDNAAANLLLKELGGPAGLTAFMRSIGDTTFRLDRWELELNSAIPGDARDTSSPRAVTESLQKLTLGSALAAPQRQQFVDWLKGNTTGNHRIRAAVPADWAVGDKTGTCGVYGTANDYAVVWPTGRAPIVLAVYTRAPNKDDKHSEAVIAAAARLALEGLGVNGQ
# From the text: (§3) Plasmid and strain construction. For antibiotic susceptibility testing, the R-lactamase genes were cloned into the vector pTRC-99k, which is a derivative of pTRC99a (Pharmacia) obtained by replacing the β-lactamase resistance gene by a kanamycin resistance gene (Km, lacl, pTRC promoter, oriVcolEl; D. Mengin-Lecreulx, unpublished). Recombinant plasmids were introduced by electrotransformation into Escherichia coli Top10. For β-lactamase production, fragments of the β-lactamase genes encoding soluble enzymes, i.e. devoid of the signal peptides, were cloned into the vector pET-TEV generating translational fusions with a vector-encoded N-terminal 6×His Tag followed by a TEV cleavage site ([…]) (1).
# as §1, §2
# TEM-1 = target: T3, TEM-1 (Escherichia coli, UniProt P62593); test: Kinetic parameters of β-lactamase carbamoylation/de-carbamoylation (nitrocefin), TEM-1; type: biochemical; conditions: 20° C., nitrocefin 100 μM, MES pH 6.4
# T3 construct: fragments of the β-lactamase genes encoding soluble enzymes, i.e. devoid of the signal peptides; made in house; host or cells: E. coli BL21 (DE3)
# T3 sequence (P62593 24-286 limits assumed): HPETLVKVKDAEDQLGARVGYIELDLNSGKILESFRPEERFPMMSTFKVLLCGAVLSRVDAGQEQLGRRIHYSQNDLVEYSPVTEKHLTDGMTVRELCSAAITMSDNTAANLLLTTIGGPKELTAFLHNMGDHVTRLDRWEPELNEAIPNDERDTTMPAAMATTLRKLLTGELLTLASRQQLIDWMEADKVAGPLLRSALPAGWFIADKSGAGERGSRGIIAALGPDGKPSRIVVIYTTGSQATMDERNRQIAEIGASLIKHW
# From the text: as §3, §1, §2
# [2] = system: E. coli Top10 producing CTX-M15; test: MIC determination by microdilution, E. coli Top10 producing CTX-M15; type: cell-based, Escherichia coli; conditions: for reduction in the MICs of β-lactams (in words): E. coli Top10 producing CTX-M-15, summary of Table 1
# From the text: as §3
# (§4) MIC determination. MICs of β-lactams were determined by the microdilution method in MH broth according to Clinical and Laboratory Standards Institute (CLSI) recommendations (12). Diazabicyclooctane were used at a fixed concentration of 15 μM (4 μg/ml for avibactam). Clavulanate was tested at 4 μg/ml. IPTG (500 μM) was added to the microdilution plates to induce production of the -lactamase. The precultures were grown in BHI broth containing IPTG (500 μM) and kanamycin (50 μg/ml) for plasmid maintenance. Reported MICs are the medians from five biological repeats obtained in two independent experiments.
# CTX-M-15 = target: T4, CTX-M-15 (Escherichia coli, UniProt Q9EXV5); test: Kinetic parameters of β-lactamase carbamoylation/de-carbamoylation (nitrocefin), CTX-M-15; type: biochemical; conditions: for Carbamoylation efficacy of β-lactamases by diazabicyclooctanes / De-carbamoylation rate constant k−2 for β-lactamase-diazabicyclooctane adducts: CTX-M-15, 20° C., nitrocefin 100 μM, MES pH 6.4; for activity against CTX-M-15 (in words): summary of Tables 1 and 2
# T4 construct: fragments of the β-lactamase genes encoding soluble enzymes, i.e. devoid of the signal peptides; made in house; host or cells: E. coli BL21 (DE3)
# T4 sequence (Q9EXV5 entry or part of it): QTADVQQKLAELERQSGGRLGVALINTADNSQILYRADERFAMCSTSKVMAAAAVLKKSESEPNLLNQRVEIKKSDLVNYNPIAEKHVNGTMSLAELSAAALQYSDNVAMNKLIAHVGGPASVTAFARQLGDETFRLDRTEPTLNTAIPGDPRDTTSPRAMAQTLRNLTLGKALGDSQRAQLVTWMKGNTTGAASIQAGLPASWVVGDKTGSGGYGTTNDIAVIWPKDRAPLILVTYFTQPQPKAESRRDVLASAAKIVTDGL
# From the text: as §3, §1, §2
# E. coli Top10 = test: MIC determination by microdilution, E. coli Top10 without β-lactamase (None); type: cell-based
# From the text: as §3, §4
# [3] = system: E. coli Top10 producing AmpCEcl; test: MIC determination by microdilution, E. coli Top10 producing AmpCEcl; type: cell-based; conditions: Escherichia coli, read-out: MIC of β-lactam, inhibitor None
# From the text: as §3, §4
# OXA-48 = target: T5, OXA-48 (Klebsiella pneumoniae, UniProt Q6XEC0); test: Kinetic parameters of β-lactamase carbamoylation/de-carbamoylation (nitrocefin), OXA-48; type: biochemical; conditions: for Carbamoylation efficacy of β-lactamases by diazabicyclooctanes / De-carbamoylation rate constant k−2 for β-lactamase-diazabicyclooctane adducts: OXA-48, 20° C., nitrocefin 100 μM, MES pH 6.4, NA = no inhibition at 100 μM
# T5 construct: fragments of the β-lactamase genes encoding soluble enzymes, i.e. devoid of the signal peptides; 6xHis tag followed by TEV cleavage site ([…]) (N); made in house; host or cells: E. coli BL21 (DE3)
# T5 sequence (Q6XEC0 23-265 limits assumed): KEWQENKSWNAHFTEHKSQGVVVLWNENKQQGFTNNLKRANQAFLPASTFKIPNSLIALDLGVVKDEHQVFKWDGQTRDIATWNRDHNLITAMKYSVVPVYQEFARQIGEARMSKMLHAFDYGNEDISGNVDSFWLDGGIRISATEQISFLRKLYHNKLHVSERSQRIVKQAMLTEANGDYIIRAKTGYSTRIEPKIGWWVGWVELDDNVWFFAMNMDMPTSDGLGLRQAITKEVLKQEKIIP
# From the text: as §3, §1, §2
# [4] = system: E. coli Top10 producing OXA-48; test: MIC determination by microdilution, E. coli Top10 producing OXA-48; type: cell-based; conditions: Escherichia coli, read-out: MIC of β-lactam, inhibitor None
# From the text: as §3, §4
SMILES,Carbamoylation efficacy of β-lactamases by diazabicyclooctanes (AmpCEclo),De-carbamoylation rate constant k−2 for β-lactamase-diazabicyclooctane adducts (AmpCEclo),Carbamoylation efficacy of β-lactamases by diazabicyclooctanes (KPC-2),De-carbamoylation rate constant k−2 for β-lactamase-diazabicyclooctane adducts (KPC-2),Carbamoylation efficacy of β-lactamases by diazabicyclooctanes (TEM-1),De-carbamoylation rate constant k−2 for β-lactamase-diazabicyclooctane adducts (TEM-1),Carbamoylation efficacy of β-lactamases by diazabicyclooctanes (CTX-M-15),De-carbamoylation rate constant k−2 for β-lactamase-diazabicyclooctane adducts (CTX-M-15),also measured
COCc1cn(C[C@@H]2CC[C@@H]3CN2C(=O)N3OS(=O)(=O)[O-])nn1.[Na+] [Compound 1a.i13],(1.5 ± 0.5) × 10^1 M^−1 s^−1,(1.3 ± 0.6) × 10^−3 s−1,(1.8 ± 0.2) × 10^1 M^−1 s^−1,(1.2 ± 0.1) × 10^−3 s−1,(8.3 ± 0.5) × 10^2 M^−1 s^−1,(1.6 ± 0.5) × 10^−3 s−1,(1.2 ± 0.4) × 10^2 M^−1 s^−1,(1.3 ± 1.3) × 10^−3 s−1,reduction in the MICs of β-lactams (in words) [1]: Minor reduction; reduction in the MICs of β-lactams (in words) [2]: Minor reduction
O=C1N2C[C@@H](CC[C@H]2Cn2cc(CN3CCOCC3)nn2)N1OS(=O)(=O)[O-].[Na+] [Compound 1a.i11],(3.1 ± 0.3) × 10^1 M^−1 s^−1,(8.9 ± 2.1) × 10^−4 s−1,(1.9 ± 0.2) × 10^2 M^−1 s^−1,(3.0 ± 0.4) × 10^−3 s−1,(1.2 ± 0.0) × 10^3 M^−1 s^−1,(2.9 ± 0.3) × 10^−3 s−1,(1.0 ± 0.0) × 10^2 M^−1 s^−1,(4.6 ± 1.1) × 10^−4 s−1,activity against KPC-2 (in words) (KPC-2): displayed activity; activity against CTX-M-15 (in words) (CTX-M-15): displayed activity
C[C@H]1[C@H](NC(=O)/C(=N\OC(C)(C)C(=O)O)c2csc(N)n2)C(=O)N1S(=O)(=O)O [Aztreonam],,,,,,,,,"MIC (E. coli Top10; Escherichia coli, TOP10; read-out: MIC of β-lactam, inhibitor None): 0.5 µg/mL"
CO/N=C(\C(=O)N[C@@H]1C(=O)N2C(C(=O)O)=C(COC(C)=O)CS[C@H]12)c1csc(N)n1 [Cefotaxime],,,,,,,,,"MIC [3]: 128 µg/mL; MIC (E. coli Top10; Escherichia coli; Cefotaxime alone; E. coli Top10, β-lactamase None; read-out: MIC of β-lactam, inhibitor None): 0.12 µg/mL"
C[Si](C)(C)c1cn(C[C@@H]2CC[C@@H]3CN2C(=O)N3OS(=O)(=O)O)nn1 [Compound 2a.i],(2.4 ± 0.1) × 10^1 M^−1 s^−1,(1.3 ± 0.9) × 10^−3 s−1,(9.7 ± 0.8) × 10^1 M^−1 s^−1,(2.9 ± 0.2) × 10^−3 s−1,(3.7 ± 0.5) × 10^2 M^−1 s^−1,(2.9 ± 0.9) × 10^−3 s−1,(4.0 ± 0.1) × 10^2 M^−1 s^−1,(3.9 ± 0.9) × 10^−4 s−1,reduction in the MICs of β-lactams (in words) [1]: Minor reduction; reduction in the MICs of β-lactams (in words) [2]: Minor reduction
O=C1N2C[C@@H](CC[C@H]2Cn2cc(-c3ccccc3)nn2)N1OS(=O)(=O)[O-].[Na+] [Compound 1a.i16],(2.0 ± 0.0) × 10^2 M^−1 s^−1,(2.3 ± 0.1) × 10^−3 s−1,(9.3 ± 0.4) × 10^2 M^−1 s^−1,(8.8 ± 1.2) × 10^−4 s−1,(4.7 ± 0.1) × 10^3 M^−1 s^−1,(4.2 ± 0.6) × 10^−4 s−1,(6.9 ± 0.2) × 10^3 M^−1 s^−1,(3.3 ± 0.5) × 10^−4 s−1,activity against KPC-2 (in words) (KPC-2): displayed activity; Carbamoylation efficacy of β-lactamases by diazabicyclooctanes (OXA-48): (1.1 ± 0.3) × 10^2 M^−1 s^−1; De-carbamoylation rate constant k−2 for β-lactamase-diazabicyclooctane adducts (OXA-48): (1.7 ± 0.1) × 10^−3 s−1; activity against CTX-M-15 (in words) (CTX-M-15): displayed activity
O=C(O)CCc1cn(C[C@@H]2CC[C@@H]3CN2C(=O)N3OS(=O)(=O)[O-])nn1.[Na+] [Compound 1a.i14],(9.9 ± 0.9) × 10^1 M^−1 s^−1,(1.6 ± 0.2) × 10^−3 s−1,(7.0 ± 0.8) × 10^1 M^−1 s^−1,(7.9 ± 1.7) × 10^−4 s−1,(7.2 ± 0.6) × 10^2 M^−1 s^−1,(8.2 ± 8.9) × 10^−4 s−1,(1.1 ± 0.1) × 10^2 M^−1 s^−1,(3.9 ± 0.8) × 10^−4 s−1,reduction in the MICs of β-lactams (in words) [1]: Minor reduction; reduction in the MICs of β-lactams (in words) [2]: Minor reduction
"CC1(C)S[C@@H]2[C@H](NC(=O)[C@H](N)c3ccc(O)cc3)C(=O)N2[C@H]1C(=O)O [Amoxicillin, reference compound]",,,,,,,,,"MIC (E. coli Top10; Escherichia coli, TOP10, read-out: MIC of β-lactam, inhibitor None): 4 µg/mL; MIC ([2]; Escherichia coli, read-out: MIC of β-lactam, inhibitor None): 2050 µg/mL"
C[C@@H](O)[C@H]1C(=O)N2C(C(=O)O)=C(S[C@@H]3CN[C@H](C(=O)Nc4cccc(C(=O)O)c4)C3)[C@H](C)[C@H]12 [Ertapenem],,,,,,,,,"MIC (E. coli Top10; Escherichia coli; Ertapenem alone; E. coli Top10, β-lactamase None; read-out: MIC of β-lactam, inhibitor None): < 0.03 µg/mL; MIC [4]: 16 µg/mL"
"NC(=O)[C@@H]1CC[C@@H]2CN1C(=O)N2OS(=O)(=O)O [Avibactam, reference compound]",(1.8 ± 0.1) × 10^4 M^−1 s^−1,(1.8 ± 0.2) × 10^−3 s−1,(2.6 ± 0.1) × 10^4 M^−1 s^−1,(4.0 ± 0.3) × 10^−3 s−1,(8.8 ± 0.2) × 10^4 M^−1 s^−1,(1.3 ± 0.1) × 10^−3 s−1,(1.3 ± 0.1) × 10^5 M^−1 s^−1,(1.1 ± 0.3) × 10^−3 s−1,inhibition of β-lactamase AmpClo (in words) (AmpCEclo): poorly inhibited; inhibition of β-lactamase OXA-48 (in words) (OXA-48): poorly inhibited; Carbamoylation efficacy of β-lactamases by diazabicyclooctanes (OXA-48): (9.8 ± 0.6) × 10^2 M^−1 s^−1; De-carbamoylation rate constant k−2 for β-lactamase-diazabicyclooctane adducts (OXA-48): (2.7 ± 0.1 ) × 10^−3 s−1
O=C1N2C[C@@H](CC[C@H]2Cn2cc(-c3cccnc3)nn2)N1OS(=O)(=O)O [Compound 1a.i],(8.5 ± 0.7) × 10^1 M^−1 s^−1,(2.1 ± 0.5) × 10^−3 s−1,(5.5 ± 0.1) × 10^2 M^−1 s^−1,(3.0 ± 0.1) × 10^−3 s−1,(1.4 ± 0.1) × 10^3 M^−1 s^−1,(2.1 ± 0.2) × 10^−3 s−1,(1.7 ± 0.4) × 10^3 M^−1 s^−1,(6.4 ± 0.8) × 10^−4 s−1,activity against KPC-2 (in words) (KPC-2): displayed activity; activity against CTX-M-15 (in words) (CTX-M-15): displayed activity
